Source: PubChem BioAssay (NCI)
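Protocol summary: plate cells (96-well), add compound at 5 concentrations, incubate 48 h, interpolate endpoints linearly. GI50 marks 50% less growth. TGI marks complete inhibition of growth.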

How the values were obtained:
Test in all cases: inhibition of tumour cell growth, NCI panel, 48 h
NCI-H460 lung = test system: NCI-H460 lung
UACC-62 melanoma = test system: UACC-62 melanoma
UO-31 renal = test system: UO-31 renal
HOP-92 NSCLC = test system: HOP-92 NSCLC
SN12C renal = test system: SN12C renal
MOLT-4 leukemia = test system: MOLT-4 leukemia
TK-10 renal = test system: TK-10 renal
SNB-75 CNS = test system: SNB-75 CNS
NCI/ADR-RES ovarian = test system: NCI/ADR-RES ovarian
SK-MEL-5 melanoma = test system: SK-MEL-5 melanoma
RXF 393 renal = test system: RXF 393 renal
K-562 leukemia = test system: K-562 leukemia
T-47D breast = test system: T-47D breast
HS 578T breast = test system: HS 578T breast
DU-145 prostate = test system: DU-145 prostate
SR leukemia = test system: SR leukemia
CCRF-CEM leukemia = test system: CCRF-CEM leukemia
MDA-MB-435 = test system: MDA-MB-435
RPMI-8226 leukemia = test system: RPMI-8226 leukemia
EKVX NSCLC = test system: EKVX NSCLC
MCF7 breast = test system: MCF7 breast
SNB-19 CNS = test system: SNB-19 CNS
SK-MEL-28 melanoma = test system: SK-MEL-28 melanoma
SF-539 CNS = test system: SF-539 CNS
SK-MEL-2 melanoma = test system: SK-MEL-2 melanoma
SF-268 CNS = test system: SF-268 CNS
HCT-116 colon = test system: HCT-116 colon
NCI-H522 lung = test system: NCI-H522 lung
SW-620 colon = test system: SW-620 colon
786-0 renal = test system: 786-0 renal
ACHN renal = test system: ACHN renal
BT-549 breast = test system: BT-549 breast
HOP-62 NSCLC = test system: HOP-62 NSCLC
HT29 colon = test system: HT29 colon
A498 renal = test system: A498 renal
OVCAR-3 ovarian = test system: OVCAR-3 ovarian
CAKI-1 renal = test system: CAKI-1 renal
SK-OV-3 ovarian = test system: SK-OV-3 ovarian
UACC-257 melanoma = test system: UACC-257 melanoma
NCI-H23 lung = test system: NCI-H23 lung
OVCAR-4 ovarian = test system: OVCAR-4 ovarian
COLO 205 colon = test system: COLO 205 colon
OVCAR-5 ovarian = test system: OVCAR-5 ovarian
U251 CNS = test system: U251 CNS
PC-3 prostate = test system: PC-3 prostate
OVCAR-8 ovarian = test system: OVCAR-8 ovarian
NCI-H226 lung = test system: NCI-H226 lung
IGROV1 ovarian = test system: IGROV1 ovarian
MALME-3M melanoma = test system: MALME-3M melanoma
M14 melanoma = test system: M14 melanoma
MDA-MB-231 breast = test system: MDA-MB-231 breast
HCC-2998 colon = test system: HCC-2998 colon
HCT-15 colon = test system: HCT-15 colon
LOX IMVI melanoma = test system: LOX IMVI melanoma
A549 NSCLC = test system: A549 NSCLC
HL-60(TB) leukemia = test system: HL-60(TB) leukemia
KM12 colon = test system: KM12 colon

## N#Cc1cccc(CSc2ncnc3nc[nH]c23)c1
NCI-H460 lung
  GI50: 74 µM
UACC-62 melanoma
  GI50: 75.7 µM
UO-31 renal
  GI50: 71.9 µM
HOP-92 NSCLC
  GI50: 16.5 µM
  TGI: 97.5 µM
SN12C renal
  GI50: 91 µM
MOLT-4 leukemia
  GI50: 85.2 µM
TK-10 renal
  GI50: 99.2 µM
SNB-75 CNS
  GI50: 23.7 µM
  TGI: 87.7 µM
NCI/ADR-RES ovarian
  GI50: 27.6 µM
  TGI: 80.8 µM
SK-MEL-5 melanoma
  GI50: 89.5 µM
RXF 393 renal
  GI50: 32.8 µM
K-562 leukemia
  GI50: 38.2 µM
T-47D breast
  GI50: 56 µM
HS 578T breast
  GI50: 64.2 µM
DU-145 prostate
  GI50: 73.6 µM
SR leukemia
  GI50: 38.9 µM
CCRF-CEM leukemia
  GI50: 61.8 µM
MDA-MB-435
  GI50: 89.8 µM
RPMI-8226 leukemia
  GI50: 40.4 µM

## COc1cc(/C=C/c2cc(O)c3cc(C(C)=O)c(=O)oc3c2)cc2c1O[C@]1(C)CC[C@@H](O)C(C)(C)[C@H]1C2
NCI-H460 lung
  TGI: > 53.2 µM
EKVX NSCLC
  GI50: > 32.5 µM
  TGI: > 64.1 µM
MCF7 breast
  TGI: > 39.3 µM
SNB-19 CNS
  GI50: > 21.9 µM
  TGI: > 95.4 µM
SK-MEL-28 melanoma
  TGI: > 21.4 µM
UACC-62 melanoma
  TGI: > 27.8 µM
SF-539 CNS
  TGI: > 23.6 µM
UO-31 renal
  TGI: > 26.2 µM
HOP-92 NSCLC
  TGI: > 28.5 µM
SN12C renal
  GI50: > 33 µM
  TGI: > 68 µM
MOLT-4 leukemia
  TGI: > 26.4 µM
SK-MEL-2 melanoma
  TGI: > 45.8 µM
TK-10 renal
  GI50: > 42.7 µM
  TGI: > 77.7 µM
SF-268 CNS
  GI50: > 21.4 µM
  TGI: > 56.4 µM
HCT-116 colon
  GI50: > 19.7 µM
  TGI: > 52.3 µM
NCI-H522 lung
  GI50: > 25.9 µM
  TGI: > 53 µM
SW-620 colon
  TGI: > 34.7 µM
786-0 renal
  TGI: > 25.3 µM
ACHN renal
  GI50: > 22.9 µM
  TGI: > 74 µM
SNB-75 CNS
  TGI: > 48 µM
BT-549 breast
  TGI: > 61.2 µM
NCI/ADR-RES ovarian
  GI50: > 36.4 µM
  TGI: > 88.9 µM
HOP-62 NSCLC
  GI50: > 26.8 µM
  TGI: > 79.9 µM
HT29 colon
  GI50: > 24.9 µM
  TGI: > 62.2 µM
A498 renal
  TGI: > 28.2 µM
OVCAR-3 ovarian
  GI50: > 33.1 µM
  TGI: > 89.1 µM
CAKI-1 renal
  TGI: > 39.4 µM
K-562 leukemia
  TGI: > 100 µM
SK-OV-3 ovarian
  GI50: > 20.6 µM
  TGI: > 64 µM
UACC-257 melanoma
  TGI: > 30.5 µM
T-47D breast
  GI50: > 23.8 µM
  TGI: > 53.9 µM
NCI-H23 lung
  GI50: > 22.2 µM
  TGI: > 55 µM
OVCAR-4 ovarian
  GI50: > 43 µM
  TGI: > 74.3 µM
COLO 205 colon
  GI50: > 27.5 µM
  TGI: > 59.8 µM
OVCAR-5 ovarian
  GI50: > 36.5 µM
  TGI: > 86 µM
U251 CNS
  TGI: > 81.4 µM
DU-145 prostate
  GI50: > 27.8 µM
  TGI: > 45.6 µM
PC-3 prostate
  TGI: > 36 µM
OVCAR-8 ovarian
  GI50: > 28.2 µM
  TGI: > 95.1 µM
SR leukemia
  TGI: > 100 µM
NCI-H226 lung
  GI50: > 23.7 µM
  TGI: > 64.9 µM
IGROV1 ovarian
  GI50: > 25.9 µM
  TGI: > 66.1 µM
MALME-3M melanoma
  TGI: > 33 µM
CCRF-CEM leukemia
  TGI: > 29.4 µM
MDA-MB-435
  GI50: > 20.1 µM
  TGI: > 45.7 µM
M14 melanoma
  TGI: > 20.2 µM
MDA-MB-231 breast
  GI50: > 26.7 µM
  TGI: > 92.3 µM
HCC-2998 colon
  GI50: > 28.2 µM
  TGI: > 48.7 µM
HCT-15 colon
  TGI: > 31.8 µM
LOX IMVI melanoma
  TGI: > 42.2 µM
A549 NSCLC
  GI50: > 24.2 µM
  TGI: > 53.2 µM
HL-60(TB) leukemia
  GI50: 2.12 µM
  TGI: 10.7 µM
KM12 colon
  GI50: > 20.8 µM
  TGI: > 39.3 µM
